# Laboratory results reported in PubChem BioAssay (NCI).
#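 96-well plates; 48 h exposure; 5 concentrations. Endpoints by linear interpolation between flanking doses. Not reached: highest tested concentration assigned. GI50: concentration for 50% inhibition of growth. TGI denotes the concentration required for complete inhibition of growth.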
# Legend:
# Assay in all cases: NCI tumour cell line growth inhibition, 48 h
# ACHN renal = system: ACHN renal
# DU-145 prostate = system: DU-145 prostate
# BT-549 breast = system: BT-549 breast
# SR leukemia = system: SR leukemia
# T-47D breast = system: T-47D breast
# OVCAR-8 ovarian = system: OVCAR-8 ovarian
# SW-620 colon = system: SW-620 colon
# HT29 colon = system: HT29 colon
# SK-OV-3 ovarian = system: SK-OV-3 ovarian
# SF-539 CNS = system: SF-539 CNS
# HCT-15 colon = system: HCT-15 colon
# NCI/ADR-RES ovarian = system: NCI/ADR-RES ovarian
# EKVX NSCLC = system: EKVX NSCLC
# RPMI-8226 leukemia = system: RPMI-8226 leukemia
# SF-295 CNS = system: SF-295 CNS
# CAKI-1 renal = system: CAKI-1 renal
# HL-60(TB) leukemia = system: HL-60(TB) leukemia
# MDA-MB-435 = system: MDA-MB-435
# OVCAR-4 ovarian = system: OVCAR-4 ovarian
# U251 CNS = system: U251 CNS
# TK-10 renal = system: TK-10 renal
# MCF7 breast = system: MCF7 breast
# SK-MEL-28 melanoma = system: SK-MEL-28 melanoma
# KM12 colon = system: KM12 colon
# UO-31 renal = system: UO-31 renal
# 786-0 renal = system: 786-0 renal
# A549 NSCLC = system: A549 NSCLC
# CCRF-CEM leukemia = system: CCRF-CEM leukemia
# HOP-92 NSCLC = system: HOP-92 NSCLC
compound,measurement,setting,value
CS(=O)c1nccc(-c2c(-c3ccc(F)c(OCc4ccc(F)cc4)c3)nc3sccn23)n1 (configuration not stated),TGI,ACHN renal,> 100 µM
same,GI50,DU-145 prostate,3.72 µM
same,TGI,DU-145 prostate,13.2 µM
same,GI50,BT-549 breast,> 100 µM
same,TGI,BT-549 breast,> 100 µM
same,GI50,SR leukemia,17.1 µM
same,TGI,SR leukemia,> 100 µM
same,GI50,T-47D breast,2.64 µM
same,TGI,T-47D breast,7 µM
same,GI50,OVCAR-8 ovarian,53.2 µM
same,TGI,OVCAR-8 ovarian,> 100 µM
same,GI50,SW-620 colon,27 µM
same,TGI,SW-620 colon,> 100 µM
same,GI50,HT29 colon,22.3 µM
same,TGI,HT29 colon,> 100 µM
same,GI50,SK-OV-3 ovarian,> 100 µM
same,TGI,SK-OV-3 ovarian,> 100 µM
same,GI50,SF-539 CNS,> 100 µM
same,TGI,SF-539 CNS,> 100 µM
same,GI50,HCT-15 colon,16.3 µM
same,TGI,HCT-15 colon,> 100 µM
same,GI50,NCI/ADR-RES ovarian,> 100 µM
same,TGI,NCI/ADR-RES ovarian,> 100 µM
same,GI50,EKVX NSCLC,16.3 µM
same,TGI,EKVX NSCLC,41.3 µM
same,GI50,RPMI-8226 leukemia,6.55 µM
same,TGI,RPMI-8226 leukemia,43.8 µM
same,GI50,SF-295 CNS,> 100 µM
same,TGI,SF-295 CNS,> 100 µM
same,GI50,CAKI-1 renal,18.4 µM
same,TGI,CAKI-1 renal,76.6 µM
same,GI50,HL-60(TB) leukemia,3.54 µM
same,TGI,HL-60(TB) leukemia,13.7 µM
same,GI50,MDA-MB-435,47.8 µM
same,TGI,MDA-MB-435,> 100 µM
same,GI50,OVCAR-4 ovarian,22.4 µM
same,TGI,OVCAR-4 ovarian,74.1 µM
same,GI50,U251 CNS,> 100 µM
same,TGI,U251 CNS,> 100 µM
same,GI50,TK-10 renal,> 100 µM
same,TGI,TK-10 renal,> 100 µM
same,GI50,MCF7 breast,2.18 µM
same,TGI,MCF7 breast,5.39 µM
same,GI50,SK-MEL-28 melanoma,6.6 µM
same,TGI,SK-MEL-28 melanoma,21.5 µM
same,GI50,KM12 colon,11.3 µM
same,TGI,KM12 colon,31.6 µM
same,GI50,UO-31 renal,> 100 µM
same,TGI,UO-31 renal,> 100 µM
same,GI50,786-0 renal,> 100 µM
same,TGI,786-0 renal,> 100 µM
same,GI50,A549 NSCLC,> 100 µM
same,TGI,A549 NSCLC,> 100 µM
same,GI50,CCRF-CEM leukemia,15.8 µM
same,TGI,CCRF-CEM leukemia,> 100 µM
same,GI50,HOP-92 NSCLC,5.76 µM
same,TGI,HOP-92 NSCLC,43.9 µM
